Data set [1] can be described thus: Selectivity index, ratio of IC50 for horse butyrylcholine esterase to IC50 for electric eel acetylcholine esterase.
For data set [2], the target named is T1, Acetylcholinesterase (Electrophorus electricus, UniProt O42275). Briefly: Inhibition of electric eel acetylcholine esterase preincubated for 10 mins followed by the addition of […] as substrate measured after 5 mins by Ellman's method. Background: Ellman's reagent forms a yellow product with free thiols.
The target of a further data set is Cholinesterase (Equus caballus, UniProt P81908). Briefly: Inhibition of horse butyrylcholine esterase preincubated for 10 mins followed by the addition of […] as substrate measured after 5 mins by Ellman's method.
Sequence of Cholinesterase (P81908 whole entry): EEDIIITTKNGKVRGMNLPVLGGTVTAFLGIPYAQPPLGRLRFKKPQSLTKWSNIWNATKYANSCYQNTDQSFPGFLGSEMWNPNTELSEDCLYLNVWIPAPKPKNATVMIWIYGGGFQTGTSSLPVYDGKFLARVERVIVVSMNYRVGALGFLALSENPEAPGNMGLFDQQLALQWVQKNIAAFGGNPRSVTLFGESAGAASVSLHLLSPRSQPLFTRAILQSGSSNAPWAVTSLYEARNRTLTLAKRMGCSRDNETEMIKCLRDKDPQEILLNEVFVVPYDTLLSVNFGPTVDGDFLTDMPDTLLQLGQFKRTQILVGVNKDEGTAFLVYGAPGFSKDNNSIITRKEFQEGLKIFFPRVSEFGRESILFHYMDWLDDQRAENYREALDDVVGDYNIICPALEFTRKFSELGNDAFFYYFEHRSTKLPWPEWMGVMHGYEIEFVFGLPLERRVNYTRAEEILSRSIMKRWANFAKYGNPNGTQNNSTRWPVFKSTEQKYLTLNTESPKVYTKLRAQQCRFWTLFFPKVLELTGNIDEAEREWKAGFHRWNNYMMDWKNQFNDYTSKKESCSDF
Data set [3] relates to HT-29. The experiment in a line: Cytotoxicity against human HT-29 cells at 10 uM by LDH release assay. In kind it is cell-based. To be noted: ht-29, 10 µM. On the technique in general: LDH leaks from cells whose membrane has failed.
In data set [4] the target is T1, Acetylcholinesterase. The experiment in a line: Non-competitive inhibition of electric eel acetylcholine esterase using […] as substrate by Ellman's method.
Data set [5] in a line: Cytotoxicity against human HT-29 cells assessed as decrease in cell viability after 24 hrs by calcein-AM/propidium iodide based fluorescence analysis. To be noted: read-out: INH.
Data set [6] concerns HT-29. The experiment in a line: Cytotoxicity against human HT-29 cells assessed as LDH release at 100 uM after 24 hrs. It counts as cell-based. To be noted: ht-29, 24 h.
For data set [7], the system named is HT-29. The experiment in a line: Cytotoxicity against human HT-29 cells at 10 times IC50 by LDH release assay. In kind it is cell-based.
The target of data set [8] is Amyloid-beta precursor protein (Homo sapiens) (UniProt P05067). The experiment in a line: Inhibition of Amyloid beta42 (unknown origin) self aggregation assessed as Abeta fibril formation at 50 uM for 24 hrs by ThT-based fluorometric assay.
Sequence of Amyloid-beta precursor protein (Homo sapiens) (P05067 whole entry): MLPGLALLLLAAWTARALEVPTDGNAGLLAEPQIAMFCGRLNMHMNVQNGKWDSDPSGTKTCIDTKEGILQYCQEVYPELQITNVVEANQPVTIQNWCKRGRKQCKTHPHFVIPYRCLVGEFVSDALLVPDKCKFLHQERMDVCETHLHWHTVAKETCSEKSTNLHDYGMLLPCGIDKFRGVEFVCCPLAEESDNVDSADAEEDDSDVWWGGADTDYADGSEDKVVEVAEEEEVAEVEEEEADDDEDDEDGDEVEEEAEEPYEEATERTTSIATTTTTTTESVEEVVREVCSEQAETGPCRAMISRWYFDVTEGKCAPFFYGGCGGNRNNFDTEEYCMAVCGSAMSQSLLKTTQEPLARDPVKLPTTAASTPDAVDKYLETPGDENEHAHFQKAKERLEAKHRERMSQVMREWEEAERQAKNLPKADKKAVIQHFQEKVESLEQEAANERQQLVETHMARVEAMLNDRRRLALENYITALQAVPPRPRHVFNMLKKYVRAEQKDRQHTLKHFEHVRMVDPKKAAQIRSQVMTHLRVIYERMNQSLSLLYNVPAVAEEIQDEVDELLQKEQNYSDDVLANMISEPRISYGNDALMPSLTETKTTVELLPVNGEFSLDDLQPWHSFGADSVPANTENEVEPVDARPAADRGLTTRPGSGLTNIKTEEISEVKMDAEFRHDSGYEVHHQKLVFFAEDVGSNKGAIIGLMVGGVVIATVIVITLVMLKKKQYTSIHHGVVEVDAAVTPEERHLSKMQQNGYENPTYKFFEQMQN
The target of data set [9] is Acetylcholinesterase (Homo sapiens, UniProt P22303).
Sequence of Acetylcholinesterase (Homo sapiens, UniProt P22303) (P22303 whole entry): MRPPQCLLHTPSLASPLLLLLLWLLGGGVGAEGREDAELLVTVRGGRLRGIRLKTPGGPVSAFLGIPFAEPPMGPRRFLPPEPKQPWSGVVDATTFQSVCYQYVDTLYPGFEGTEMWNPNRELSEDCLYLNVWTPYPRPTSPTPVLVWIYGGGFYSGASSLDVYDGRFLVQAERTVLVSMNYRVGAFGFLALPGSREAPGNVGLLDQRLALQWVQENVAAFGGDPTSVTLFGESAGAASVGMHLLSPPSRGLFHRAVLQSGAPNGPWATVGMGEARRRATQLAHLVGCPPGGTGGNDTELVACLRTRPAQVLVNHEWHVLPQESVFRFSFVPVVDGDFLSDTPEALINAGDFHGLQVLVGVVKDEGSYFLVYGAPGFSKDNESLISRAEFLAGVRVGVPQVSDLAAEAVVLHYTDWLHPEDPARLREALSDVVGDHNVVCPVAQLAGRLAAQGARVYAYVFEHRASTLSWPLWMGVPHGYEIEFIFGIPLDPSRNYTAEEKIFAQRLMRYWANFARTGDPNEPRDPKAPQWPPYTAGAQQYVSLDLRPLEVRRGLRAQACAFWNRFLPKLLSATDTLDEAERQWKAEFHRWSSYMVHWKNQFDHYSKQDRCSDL
Description: Inhibition of human acetylcholine esterase preincubated for 10 mins followed by the addition of 550 uM of acetylcholine iodide as substrate measured after 20 mins by Ellman's method
Data set [10] addresses T1, Acetylcholinesterase. Briefly: Mixed inhibition of electric eel acetylcholine esterase using […] as substrate by Ellman's method.

SMILES strings stand for the structures. Active and inactive are the calls of the source. The calls are words filed in the database; no cut-off is given here.

What is called IC50 is the point on the concentration scale where inhibition reaches its midpoint. Usually Ki stands for the equilibrium dissociation constant of an inhibitor or competing ligand from its target. Lower therefore signals a stronger hold on the target.

T1 sequence (O42275 whole entry): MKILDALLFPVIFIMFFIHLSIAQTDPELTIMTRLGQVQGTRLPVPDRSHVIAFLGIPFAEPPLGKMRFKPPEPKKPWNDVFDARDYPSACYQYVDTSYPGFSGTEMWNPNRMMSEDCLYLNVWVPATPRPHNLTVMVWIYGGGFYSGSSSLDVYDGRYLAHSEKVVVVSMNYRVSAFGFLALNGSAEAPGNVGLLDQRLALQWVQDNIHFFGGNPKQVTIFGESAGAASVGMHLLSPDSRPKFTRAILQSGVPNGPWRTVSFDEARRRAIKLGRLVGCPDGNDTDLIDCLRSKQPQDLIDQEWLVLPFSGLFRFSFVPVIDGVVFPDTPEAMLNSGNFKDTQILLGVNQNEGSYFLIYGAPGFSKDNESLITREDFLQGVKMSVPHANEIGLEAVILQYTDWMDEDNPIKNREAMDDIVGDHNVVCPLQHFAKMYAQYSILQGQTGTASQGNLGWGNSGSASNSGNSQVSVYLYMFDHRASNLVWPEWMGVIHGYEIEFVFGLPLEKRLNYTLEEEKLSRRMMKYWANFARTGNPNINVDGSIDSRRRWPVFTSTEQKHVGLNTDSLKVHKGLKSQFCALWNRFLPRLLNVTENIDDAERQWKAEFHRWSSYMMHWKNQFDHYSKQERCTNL

On to `CCN(CCCCCCCCc1cccc(OC)c1)Cc1ccccc1`, for which the Ratio IC50 in data set [1] came out at 0.5. Also, the values for the IC50 on Acetylcholinesterase [2] and against Cholinesterase were 16.1 µM and 8 µM, respectively. Besides, the Activity entry in the data set with HT-29 [3] is “Non-toxic”. In addition, affinity at Acetylcholinesterase [4] was put at a Ki of 10.4 µM.
In the case of `COc1cccc(CCCCCCCCNCc2ccccc2OC)c1`, the Ratio IC50 in data set [1] is 0.2. In addition, the IC50 amounted to 17.2 µM on Acetylcholinesterase [2] and 3.1 µM against Cholinesterase. Besides, the cytotoxicity at 24 h in data set [5] was 46.3%. Besides, the Activity result in the data set with HT-29 [3] is listed as “Non-toxic”; in the data set on HT-29 [6], “Toxic”. This compound also displayed an inhibition constant (Ki) at Acetylcholinesterase [4] of 17 µM.
As to `COc1cccc(CCCCCCCCN2CCC(OC(=O)N(C)C)C2)c1` (racemic), the Ratio IC50 in data set [1] was 1.7. Also, the IC50 against Acetylcholinesterase [2] worked out at 13.7 µM; against Cholinesterase, 22.8 µM. Moreover, the Activity entry with HT-29 [3] is “Non-toxic”. This compound gave a Ki on Acetylcholinesterase [4] of 8.6 µM.
`CCN(CCCCCCCCc1cccc(OC)c1)Cc1ccccc1OC`: the Activity entry in the data set on HT-29 [7] is “Toxic”; in the data set on HT-29 [3], “Non-toxic”; with HT-29 [6], “Toxic”. In data set [8], the inhibition entry was “inactive”. For the same compound, in data set [1], the Ratio IC50 worked out at 0.8. Further, the IC50 on Acetylcholinesterase [2] stood at 6.6 µM; against Cholinesterase it was 5 µM; against Acetylcholinesterase [9], 5.65 µM. This compound also registered an inhibition constant Ki at Acetylcholinesterase [4] of 24.4 µM.
For the compound `COc1cccc(CCCCCCCCN2CCCC2)c1`, the Ratio IC50 in [1] turned out to be 0.8. Besides, the IC50 was 19.6 µM against Acetylcholinesterase [2] and 16.4 µM at Cholinesterase. Further, the Activity result in the data set on HT-29 [3] is “Non-toxic”. The Ki at Acetylcholinesterase [10] is 22.4 µM.
In the case of `COc1cccc(CCCCCCCCN2CCCC(OC(C)=O)C2)c1` (racemic), the Ratio IC50 in data set [1] was determined as 1.2. Further, the IC50 against Acetylcholinesterase [2] was 16.1 µM; on Cholinesterase, 19 µM. Besides, the Activity entry in the data set on HT-29 [3] is on record as “Non-toxic”. Further, the Ki at Acetylcholinesterase [4] worked out at 19 µM.
For the compound `COc1cccc(CCCCCCCCN2CCCC(OC(=O)N(C)C)C2)c1` (racemic), the Ratio IC50 in data set [1] stood at 1.7. The IC50 on Acetylcholinesterase [2] worked out at 14.3 µM; against Cholinesterase, 23.5 µM. The Activity result in the data set on HT-29 [3] is listed as “Non-toxic”. This compound also showed a Ki at Acetylcholinesterase [4] of 22.4 µM.
